Counter-ions that a name gives are not always drawn. Blank lines part the entries; values can stand above or below the compound they belong to.
Legend:
ACK1 [1] = biological target: T1, ACK1 (Homo sapiens, UniProt Q07912); test: ELISA-based ACK1 kinase inhibition; assay type: biochemical; details: for ACK1 inhibition in ELISA: 10 μM; for inhibition at 10 µM: read-out: % Inhibition @ 10 μM (ELISA)
VCaP cells = test: Cell growth, viable cells by trypan blue exclusion, VCaP; assay type: cell-based; details: Homo sapiens, 72 h, read-out: IC50 cell growth VCaP
A549 lung cancer cells = details: at 10 μM; cited from earlier work
ACK1 [2] = biological target: T1, ACK1; test: 33P HotSpot assay; assay type: biochemical; details: IC50 (33P Hotspot assay)
[3] = biological target: ACK1 Tyr284 phosphorylation in LAPC4 cells (Homo sapiens, UniProt Q07912); test: ACK1 Tyr284 autophosphorylation by immunoblotting in EGF-treated LAPC4 cells; assay type: cell-based; details: 5 μM, immunoblot (Figure 3a)
[4] = In vitro human plasma stability by HPLC; assay type: in vitro ADME; details: for stability in human plasma: up to 24 h, HPLC
ALK = ALK (Homo sapiens, UniProt Q9UM73); test: 33P HotSpot kinase profiling, ALK; assay type: biochemical; details: ALK vs ACK1
ACK1 autophosphorylation = details: read-out: IC50 inhibition of ACK1 autophosphorylation in intact cells; cited from earlier work
LNCaP cells = test: Cell growth, viable cells by trypan blue exclusion, LNCaP; assay type: cell-based; details: Homo sapiens, 72 h, read-out: IC50 cell growth LNCaP
[5] = standards; cited from earlier work

ACK1 Tyr284 phosphorylation in LAPC4 cells, sequence (Q07912 whole entry): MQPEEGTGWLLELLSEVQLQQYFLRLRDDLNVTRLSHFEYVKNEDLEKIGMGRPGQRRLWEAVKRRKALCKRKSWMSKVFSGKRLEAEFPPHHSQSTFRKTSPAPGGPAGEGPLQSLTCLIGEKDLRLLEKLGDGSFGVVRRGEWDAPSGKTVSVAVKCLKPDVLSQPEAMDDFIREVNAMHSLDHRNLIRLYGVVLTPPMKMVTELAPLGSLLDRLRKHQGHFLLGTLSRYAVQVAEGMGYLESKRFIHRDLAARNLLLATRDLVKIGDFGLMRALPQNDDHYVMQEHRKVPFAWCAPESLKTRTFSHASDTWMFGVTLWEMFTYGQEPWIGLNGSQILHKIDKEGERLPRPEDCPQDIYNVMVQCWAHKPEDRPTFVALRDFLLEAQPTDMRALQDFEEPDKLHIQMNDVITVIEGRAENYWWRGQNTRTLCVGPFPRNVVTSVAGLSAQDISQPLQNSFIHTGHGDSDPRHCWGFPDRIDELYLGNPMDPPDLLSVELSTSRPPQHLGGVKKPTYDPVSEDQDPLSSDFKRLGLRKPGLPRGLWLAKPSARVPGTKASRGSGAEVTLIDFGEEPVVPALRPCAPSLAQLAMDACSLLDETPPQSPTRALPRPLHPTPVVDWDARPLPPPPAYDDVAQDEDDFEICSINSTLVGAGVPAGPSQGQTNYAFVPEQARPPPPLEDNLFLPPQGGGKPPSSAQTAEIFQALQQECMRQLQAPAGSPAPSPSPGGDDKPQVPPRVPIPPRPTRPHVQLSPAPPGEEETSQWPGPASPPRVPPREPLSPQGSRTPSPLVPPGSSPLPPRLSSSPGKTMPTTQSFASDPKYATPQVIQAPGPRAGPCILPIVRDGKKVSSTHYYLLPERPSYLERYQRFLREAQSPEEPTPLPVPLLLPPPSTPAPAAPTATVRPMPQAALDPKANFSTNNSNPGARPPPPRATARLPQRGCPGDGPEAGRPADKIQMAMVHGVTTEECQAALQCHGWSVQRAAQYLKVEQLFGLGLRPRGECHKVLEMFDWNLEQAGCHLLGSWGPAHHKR
T1 sequence (Q07912 whole entry): as above
ALK, sequence (Q9UM73 19-1620): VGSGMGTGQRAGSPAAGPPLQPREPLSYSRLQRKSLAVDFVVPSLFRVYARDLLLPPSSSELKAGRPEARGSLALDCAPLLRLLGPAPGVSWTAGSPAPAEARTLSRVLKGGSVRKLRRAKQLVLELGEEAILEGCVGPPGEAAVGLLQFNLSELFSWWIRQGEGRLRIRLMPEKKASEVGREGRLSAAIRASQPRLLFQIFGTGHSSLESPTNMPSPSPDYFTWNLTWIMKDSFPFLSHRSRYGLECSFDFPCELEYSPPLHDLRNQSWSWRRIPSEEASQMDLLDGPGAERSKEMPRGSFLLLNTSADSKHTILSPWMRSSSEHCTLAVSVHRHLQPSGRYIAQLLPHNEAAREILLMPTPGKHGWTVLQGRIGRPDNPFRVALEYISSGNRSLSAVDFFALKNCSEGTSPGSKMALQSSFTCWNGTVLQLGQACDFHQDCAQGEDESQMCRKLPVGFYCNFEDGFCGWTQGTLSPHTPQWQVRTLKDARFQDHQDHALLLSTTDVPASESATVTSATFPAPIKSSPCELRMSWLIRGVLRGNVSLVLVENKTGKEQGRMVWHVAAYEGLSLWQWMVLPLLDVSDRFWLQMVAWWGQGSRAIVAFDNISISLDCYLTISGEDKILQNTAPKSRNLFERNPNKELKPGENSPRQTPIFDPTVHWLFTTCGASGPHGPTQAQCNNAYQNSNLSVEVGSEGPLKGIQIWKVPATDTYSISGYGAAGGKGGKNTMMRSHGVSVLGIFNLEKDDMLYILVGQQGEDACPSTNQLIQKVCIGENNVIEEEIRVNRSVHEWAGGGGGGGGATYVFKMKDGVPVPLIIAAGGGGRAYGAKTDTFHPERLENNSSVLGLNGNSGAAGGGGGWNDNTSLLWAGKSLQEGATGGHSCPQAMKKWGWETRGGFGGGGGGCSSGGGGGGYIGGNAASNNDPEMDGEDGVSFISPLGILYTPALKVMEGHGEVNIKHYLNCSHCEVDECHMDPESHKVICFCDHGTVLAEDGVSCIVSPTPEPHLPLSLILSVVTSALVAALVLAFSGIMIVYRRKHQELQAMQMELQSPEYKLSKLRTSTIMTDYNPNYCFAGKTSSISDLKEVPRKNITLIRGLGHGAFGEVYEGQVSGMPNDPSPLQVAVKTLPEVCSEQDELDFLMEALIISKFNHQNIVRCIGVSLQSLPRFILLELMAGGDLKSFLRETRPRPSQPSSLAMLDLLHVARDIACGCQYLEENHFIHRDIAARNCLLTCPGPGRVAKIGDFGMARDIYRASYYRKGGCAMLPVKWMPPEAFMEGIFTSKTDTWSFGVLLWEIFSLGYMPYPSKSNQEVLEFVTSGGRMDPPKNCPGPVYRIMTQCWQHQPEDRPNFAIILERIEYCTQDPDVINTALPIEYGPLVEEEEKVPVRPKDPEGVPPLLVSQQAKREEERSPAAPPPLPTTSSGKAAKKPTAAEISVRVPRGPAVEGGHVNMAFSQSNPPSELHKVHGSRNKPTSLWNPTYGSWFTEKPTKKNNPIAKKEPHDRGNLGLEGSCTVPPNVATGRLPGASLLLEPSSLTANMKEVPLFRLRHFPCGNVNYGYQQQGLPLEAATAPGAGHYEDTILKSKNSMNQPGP

Compound: CN(C)CCNC(=O)CCc1ccc(Nc2ncc(Cl)c(NCC3CCCO3)n2)cc1.Cl (stereo not shown) [compound 26]
ACK1 inhibition in ELISA (ACK1 [1]): moderate ACK1 inhibition

Compound: c1ccc(-c2oc3ncnc(NC[C@@H]4CCCO4)c3c2-c2ccccc2)cc1 [1b]
IC50 (VCaP cells): 4000 nM

Compound: COc1cc(N2CCN(C)CC2)ccc1Nc1ncc2c(n1)N(C)c1ccccc1C(=O)N2 [compound 3]
A549 lung cancer cell growth (A549 lung cancer cells): inhibits

Compound: Cl.O=C(O)CCC(=O)N1CCN(c2ccc(Nc3ncc(Br)c(NCC4CCCO4)n3)cc2)CC1 (stereo not shown) [compound 29]
ACK1 inhibition in ELISA (ACK1 [1]): significant ACK1 inhibition

Compound: O=C(O)CCC(=O)N1CCN(c2ccc(Nc3ncc(C(=O)Nc4c(F)cccc4Cl)c(NCC4CCCO4)n3)cc2)CC1 (stereo not shown) [compound 22, 4-(4-{4-[[5-((2-Chloro-6-fluorophenyl)carbamoyl)-4-(((tetrahydrofuran-2-yl)methyl)amino)pyrimidin-2-yl]amino]phenyl}piperazin-1-yl)-4-oxobutanoic Acid]
inhibition at 10 µM (ACK1 [1]): 89 ± 5.6%
IC50 (ACK1 [2]): 28 nM

Compound: COc1cc(N2CCC(N3CCN(C)CC3)CC2)ccc1Nc1ncc(Cl)c(Nc2ccccc2S(=O)(=O)C(C)C)n1 [compound 5, reference compound]
ACK1 activation (Tyr284 autophosphorylation) after EGF [3]: significant reduction in ACK1 activation

Compound: COC(C)(C)CCn1nc(Nc2c(C)cccc2C)c2cnc(Nc3ccccc3)nc21 [2a]
IC50 (ACK1 autophosphorylation): 20 nM

Compound: 5-[(2-Chloro-6-fluorophenyl)carbamoyl]-N^2-[(4-methoxyphenyl)amino]-N^4-[(tetrahydrofuran-2-yl)methyl]pyrimidine-2,4-diamine [9q]
% Inhibition @ 10 μM (ELISA) (ACK1 [1]; compound 10 μM, average of three or more determinations): 68 ± 10%

Compound: CCN(CC)CCOC(=O)c1ccc(N)cc1 [procaine]
reported stability in human plasma [5]: unstable

The next lines start with the values.

inhibition at 10 µM (ACK1 [1]): 41 ± 6.3%
Compound: Oc1ccc(NNc2ncc(F)c(NCC3CCCO3)n2)cc1F (stereo not shown) [9t, 5-Fluoro-N^2-[(4-hydroxy-3-fluorophenyl)amino]-N^4-[(tetrahydrofuran-2-yl)methyl]pyrimidine-2,4-diamine Hydrochloride]

ACK1 inhibition in ELISA (ACK1 [1]): moderate ACK1 inhibition
Compound: Cl.O=C(O)CCc1ccc(Nc2ncc(Cl)c(NCC3CCCO3)n2)cc1 (stereo not shown) [compound 24]

ACK1 inhibition in ELISA (ACK1 [1]): moderate ACK1 inhibition
Compound: Cl.O=C(O)Cc1ccc(Nc2ncc(Cl)c(NCC3CCCO3)n2)cc1 (stereo not shown) [compound 23]

ACK1 inhibition in ELISA (ACK1 [1]): moderate ACK1 inhibition
Compound: Cl.O=C(O)CCc1ccc(Nc2ncc(Br)c(NCC3CCCO3)n2)cc1 (stereo not shown) [compound 28]

ACK1 activation (Tyr284 autophosphorylation) after EGF [3]: almost complete loss of ACK1 activation
half-life at 250 µM ([4]; human, human plasma): > 6 h
stability in human plasma [4]: stable in human plasma
fold difference of ALK IC50 versus ACK1 IC50 (ALK): 3 fold
Compound: CN1CCN(c2ccc(Nc3ncc(Cl)c(NC[C@H]4CCCO4)n3)cc2)CC1 [(R)-9b, (R)-5-Chloro-N^2-[4-(4-methylpiperazin-1-yl)phenyl]-N^4-[(tetrahydrofuran-2-yl)methyl]pyrimidine-2,4-diamine]

ACK1 activation (Tyr284 autophosphorylation) after EGF [3]: almost complete loss of ACK1 activation
IC50 (LNCaP cells): 1800 nM
stability in human plasma [4]: stable in human plasma
Compound: CN1CCN(c2ccc(Nc3ncc(Cl)c(NC[C@@H]4CCCO4)n3)cc2)CC1 [(S)-9b, (S)-5-Chloro-N^2-[4-(4-methylpiperazin-1-yl)phenyl]-N^4-[(tetrahydrofuran-2-yl)methyl]pyrimidine-2,4-diamine]

inhibition at 10 µM (ACK1 [1]): 49 ± 2.8%
Compound: Cc1cnc(NNc2ccc(O)c(F)c2)nc1NCC1CCCO1 (stereo not shown) [9u, 5-Methyl-N^2-[(4-hydroxy-3-fluorophenyl)amino]-N^4-[(tetrahydrofuran-2-yl)methyl]pyrimidine-2,4-diamine Hydrochloride]

Reference: publication PMC4605435 (Journal of medicinal chemistry, 2015)
